Data published in US20050176655A1, “Novel macrolide derivatives havaing effect of potentiating antifungal activity” (priority 2002, published 2005).

Assays:
Experiment in all cases: Paper disk method, enhancing action for activities of azole antifungal agents
Assay type in all cases: cell-based
[1] = tested on: Candida albicans ATCC 64548; conditions: 24 hours; for Inhibition activity (inhibition ring mm) C. albicans ATCC 64548 GYM / Transparency of the inhibition ring C. albicans ATCC 64548 GYM: miconazole 0.03 μg/ml; for Inhibition activity (inhibition ring mm) C. albicans ATCC 64548 GYF / Transparency of the inhibition ring C. albicans ATCC 64548 GYF: fluconazole 0.5 μg/ml
Procedure, shortened: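 GY agar (pH 6.0) seeded with C. albicans ATCC 64548 precultured in Waksman broth at 27° C for 40 hours, supplemented with sub-growth-inhibitory miconazole 0.03 μg/ml or fluconazole 0.5 μg/ml. Paper disk method; inhibition-zone diameter (mm) read after 24 hours, transparency graded A–E.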

[2] = tested on: Aspergillus niger ATCC 6275; conditions: 48 hours; for Inhibition activity (inhibition ring mm) A. niger ATCC 6275 GY / Transparency of the inhibition ring A. niger ATCC 6275 GY: GY medium (control, no azole); for Inhibition activity (inhibition ring mm) A. niger ATCC 6275 GYF / Transparency of the inhibition ring A. niger ATCC 6275 GYF: fluconazole 10 μg/ml; for Inhibition activity (inhibition ring mm) A. niger ATCC 6275 GYM / Transparency of the inhibition ring A. niger ATCC 6275 GYM: miconazole 0.1 μg/ml
Procedure, shortened: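 Paper-disk assay on A. niger ATCC 6275 spores (0.2%) seeded on GY agar pH 6.0. After 48 h, inhibition-zone diameter recorded in mm and transparency graded A (transparent) to E (opaque).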

[3] = tested on: fluconazole resistant Candida albicans ATCC 64550; conditions: 24 hours; for Inhibition activity (inhibition ring mm) C. albicans ATCC 64550 GYF / Transparency of the inhibition ring C. albicans ATCC 64550 GYF: fluconazole 30 μg/ml; for Inhibition activity (inhibition ring mm) C. albicans ATCC 64550 GYM / Transparency of the inhibition ring C. albicans ATCC 64550 GYM: miconazole 0.15 μg/ml
Procedure, shortened: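 Paper disk assay on GY agar (pH 6.0) seeded with Waksman-broth-grown C. albicans ATCC 64550 (0.1% inoculum). Medium was supplemented with sub-growth-inhibitory miconazole 0.15 μg/ml or fluconazole 30 μg/ml. After 24 h, inhibition-zone diameter was measured in mm and transparency graded A–E (A most transparent, E opaque).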

SMILES	Inhibition activity (inhibition ring mm) C. albicans ATCC 64548 GYM ([1]; 50 μg/8 mm disk) [mm]	Transparency of the inhibition ring C. albicans ATCC 64548 GYM ([1]; 50 μg/8 mm disk)	Inhibition activity (inhibition ring mm) C. albicans ATCC 64548 GYM ([1]; 100 μg/8 mm disk) [mm]	Transparency of the inhibition ring C. albicans ATCC 64548 GYM ([1]; 100 μg/8 mm disk)	Inhibition activity (inhibition ring mm) A. niger ATCC 6275 GY ([2]; 50 μg/8 mm disk) [mm]	Transparency of the inhibition ring A. niger ATCC 6275 GY ([2]; 50 μg/8 mm disk)	Inhibition activity (inhibition ring mm) A. niger ATCC 6275 GYF ([2]; 50 μg/8 mm disk) [mm]	Transparency of the inhibition ring A. niger ATCC 6275 GYF ([2]; 50 μg/8 mm disk)	Inhibition activity (inhibition ring mm) A. niger ATCC 6275 GYM ([2]; 50 μg/8 mm disk) [mm]	Transparency of the inhibition ring A. niger ATCC 6275 GYM ([2]; 50 μg/8 mm disk)	Inhibition activity (inhibition ring mm) A. niger ATCC 6275 GY ([2]; 100 μg/8 mm disk) [mm]	Transparency of the inhibition ring A. niger ATCC 6275 GY ([2]; 100 μg/8 mm disk)	Inhibition activity (inhibition ring mm) A. niger ATCC 6275 GYF ([2]; 100 μg/8 mm disk) [mm]	Transparency of the inhibition ring A. niger ATCC 6275 GYF ([2]; 100 μg/8 mm disk)	Inhibition activity (inhibition ring mm) A. niger ATCC 6275 GYM ([2]; 100 μg/8 mm disk) [mm]	Transparency of the inhibition ring A. niger ATCC 6275 GYM ([2]; 100 μg/8 mm disk)	Inhibition activity (inhibition ring mm) C. albicans ATCC 64550 GYF ([3]; 10 μg/8 mm disk) [mm]	Transparency of the inhibition ring C. albicans ATCC 64550 GYF ([3]; 10 μg/8 mm disk)	Inhibition activity (inhibition ring mm) C. albicans ATCC 64550 GYF ([3]; 50 μg/8 mm disk) [mm]	Transparency of the inhibition ring C. albicans ATCC 64550 GYF ([3]; 50 μg/8 mm disk)	also measured
CCCCCC(=O)OC1C(C)OC(OC2C(C)C(=O)OC(C(C)(O)C(CC)OC(=O)CCCCC)C(C)C3=C(C)CC(C)(O3)C(OC3OC(C)CC(NC)C3O)C2C)CC1(C)OC (centres unmarked) [Compound 852]	9	A (Growth of test organism was inhibited 95% or more.)	10	A (Growth of test organism was inhibited 95% or more.)	9	E (Growth of test organism was inhibited 35% or less.)	8	D (Growth of test organism was inhibited 35% or more and 55% or less.)	8	C (Growth of test organism was inhibited 55% or more and 75% or less.)	10	E (Growth of test organism was inhibited 35% or less.)	9	D (Growth of test organism was inhibited 35% or more and 55% or less.)	9	A (Growth of test organism was inhibited 95% or more.)	9	C (Growth of test organism was inhibited 55% or more and 75% or less.)	11	A (Growth of test organism was inhibited 95% or more.)	Inhibition activity (inhibition ring mm) C. albicans ATCC 64550 GYM ([3]; 10 μg/8 mm disk): 9 mm; Transparency of the inhibition ring C. albicans ATCC 64550 GYM ([3]; 10 μg/8 mm disk): C (Growth of test organism was inhibited 55% or more and 75% or less.); Inhibition activity (inhibition ring mm) C. albicans ATCC 64550 GYM ([3]; 50 μg/8 mm disk): 10 mm; Transparency of the inhibition ring C. albicans ATCC 64550 GYM ([3]; 50 μg/8 mm disk): B (Growth of test organism was inhibited 75% of more and 95% or less.); Inhibition activity (inhibition ring mm) C. albicans ATCC 64550 GYF ([3]; 100 μg/8 mm disk): 12 mm; Transparency of the inhibition ring C. albicans ATCC 64550 GYF ([3]; 100 μg/8 mm disk): A (Growth of test organism was inhibited 95% or more.); Inhibition activity (inhibition ring mm) C. albicans ATCC 64550 GYM ([3]; 100 μg/8 mm disk): 12 mm; Transparency of the inhibition ring C. albicans ATCC 64550 GYM ([3]; 100 μg/8 mm disk): B (Growth of test organism was inhibited 75% of more and 95% or less.)
CCCCCC(=O)OC1C(C)OC(OC2C(C)C(=O)OC(C(C)(O)C(CC)OC(=O)CCCCC)C(C)C3=C(C)CC(C)(O3)C(OC3OC(C)CC(N(C)CC)C3O)C2C)CC1(C)OC (centres unmarked) [Compound 853, 4″,13-Di-O-hexanoyl-de(3′-N-methyl)-N-ethyl-8,9-Anhydro-pseudoerythromycin A 6,9-hemiketal]	14	A (Growth of test organism was inhibited 95% or more.)	15	A (Growth of test organism was inhibited 95% or more.)	12	D (Growth of test organism was inhibited 35% or more and 55% or less.)	13	B (Growth of test organism was inhibited 75% of more and 95% or less.)	15	B (Growth of test organism was inhibited 75% of more and 95% or less.)	13	D (Growth of test organism was inhibited 35% or more and 55% or less.)	14	B (Growth of test organism was inhibited 75% of more and 95% or less.)	16	B (Growth of test organism was inhibited 75% of more and 95% or less.)	11	D (Growth of test organism was inhibited 35% or more and 55% or less.)	14	A (Growth of test organism was inhibited 95% or more.)	Inhibition activity (inhibition ring mm) C. albicans ATCC 64548 GYF ([1]; 10 μg/8 mm disk): 9 mm; Transparency of the inhibition ring C. albicans ATCC 64548 GYF ([1]; 10 μg/8 mm disk): E (Growth of test organism was inhibited 35% or less.); Inhibition activity (inhibition ring mm) C. albicans ATCC 64548 GYM ([1]; 10 μg/8 mm disk): 10 mm; Transparency of the inhibition ring C. albicans ATCC 64548 GYM ([1]; 10 μg/8 mm disk): B (Growth of test organism was inhibited 75% of more and 95% or less.); Inhibition activity (inhibition ring mm) C. albicans ATCC 64548 GYF ([1]; 50 μg/8 mm disk): 14 mm; Transparency of the inhibition ring C. albicans ATCC 64548 GYF ([1]; 50 μg/8 mm disk): B (Growth of test organism was inhibited 75% of more and 95% or less.); Inhibition activity (inhibition ring mm) C. albicans ATCC 64548 GYF ([1]; 100 μg/8 mm disk): 16 mm; Transparency of the inhibition ring C. albicans ATCC 64548 GYF ([1]; 100 μg/8 mm disk): B (Growth of test organism was inhibited 75% of more and 95% or less.); Inhibition activity (inhibition ring mm) A. niger ATCC 6275 GY ([2]; 10 μg/8 mm disk): 10 mm; Transparency of the inhibition ring A. niger ATCC 6275 GY ([2]; 10 μg/8 mm disk): E (Growth of test organism was inhibited 35% or less.); Inhibition activity (inhibition ring mm) A. niger ATCC 6275 GYF ([2]; 10 μg/8 mm disk): 9 mm; Transparency of the inhibition ring A. niger ATCC 6275 GYF ([2]; 10 μg/8 mm disk): E (Growth of test organism was inhibited 35% or less.); Inhibition activity (inhibition ring mm) A. niger ATCC 6275 GYM ([2]; 10 μg/8 mm disk): 10 mm; Transparency of the inhibition ring A. niger ATCC 6275 GYM ([2]; 10 μg/8 mm disk): E (Growth of test organism was inhibited 35% or less.); Inhibition activity (inhibition ring mm) C. albicans ATCC 64550 GYM ([3]; 50 μg/8 mm disk): 15 mm; Transparency of the inhibition ring C. albicans ATCC 64550 GYM ([3]; 50 μg/8 mm disk): A (Growth of test organism was inhibited 95% or more.); Inhibition activity (inhibition ring mm) C. albicans ATCC 64550 GYF ([3]; 100 μg/8 mm disk): 15 mm; Transparency of the inhibition ring C. albicans ATCC 64550 GYF ([3]; 100 μg/8 mm disk): A (Growth of test organism was inhibited 95% or more.); Inhibition activity (inhibition ring mm) C. albicans ATCC 64550 GYM ([3]; 100 μg/8 mm disk): 16 mm; Transparency of the inhibition ring C. albicans ATCC 64550 GYM ([3]; 100 μg/8 mm disk): A (Growth of test organism was inhibited 95% or more.)
